Source: patent publication US20230338360A1, “Method of Inhibiting Constitutively Active Phosphorylated FLT3 Kinase” (Arog Pharmaceuticals, Inc., priority 2012, published 2023)
Read-outs that look alike come from different tables or passages of the source. Values belong to the molecule of their own block, whether it stands above or below them.

Experiments:
[1] = target: TIE-2 (Homo sapiens, UniProt Q02763); experiment: Inhibition of other RTKs (IC50); format: biochemical
[2] = target: FGFR-2 (Homo sapiens, UniProt P21802); experiment: Inhibition of other RTKs (IC50); format: biochemical
[3] = target: erbB2 (Homo sapiens, UniProt P04626); experiment: Inhibition of other RTKs (IC50); format: biochemical
[4] = target: ABL1(T315I) nonphosphorylated (Homo sapiens, UniProt P00519, T315I)
[5] = system: primary AML patient blasts with FLT3 D835 mutation; conditions: MTT assay, 3 day exposure; cited from earlier work
[6] = system: Ba/F3 D835Y/ITD; conditions: text: viability, read-out: IC50 pFLT3; cited from earlier work
[7] = system: FLT3 ITD expressing Molm 14 cells; conditions: cited from earlier work; for Percent Apoptosis: Molm 14
[8] = target: ABL1-nonphosphorylated (Homo sapiens, UniProt P00519)
[9] = system: Ba/F3 D835N; conditions: text: viability, read-out: IC50 pFLT3; cited from earlier work
[10] = system: luciferase-expressing MV-411 cells; conditions: 15 mg/kg intraperitoneally, male NSG mice, twice daily 2 days then once daily 2 days; p<0.01; cited from earlier work
[11] = system: primary AML patient blasts with FLT3 ITD and FLT3 D835Y mutation; conditions: blasts incubated 3 days; patient relapsed after AC220; cited from earlier work
[12] = target: EGFR (Homo sapiens, UniProt P00533); experiment: Inhibition of other RTKs (IC50); format: biochemical
[13] = system: MV-411 FLT3 ITD cells; conditions: combined with cytarabine in vitro; cited from earlier work
[14] = target: VEGFR-2 (Homo sapiens, UniProt P35968); experiment: Inhibition of other RTKs (IC50); format: biochemical
[15] = system: primary AML patient blast samples harboring the FLT3 ITD mutation; conditions: samples from five patients, increasing concentrations, MTT; cited from earlier work
[16] = system: Ba/F3 D835Y; conditions: text: viability, read-out: IC50 pFLT3; cited from earlier work
[17] = target: wild type FLT3 receptor in HL60 (Homo sapiens, UniProt P36888); conditions: cited from earlier work
[18] = system: FLT3-ITD MV411 cells; conditions: crenolanib 0.1 uM for 5 minutes and 2 hours, […] radiolabeled cytarabine; cited from earlier work
[19] = target: Src (Homo sapiens, UniProt P12931); experiment: Inhibition of other RTKs (IC50); format: biochemical
[20] = target: ABL1-phosphorylated (Homo sapiens, UniProt P00519)
[21] = target: ABL1(T315I) phosphorylated (Homo sapiens, UniProt P00519, T315I)
[22] = system: other kinases (VEGFR-2, FGFR-2, TIE-2, VEGFR, FGFR, EGFR, erbB2, src, Abl, Raf); experiment: Selectivity relative to other kinases; format: biochemical; conditions: at clinically achievable concentrations, e.g. VEGFR

Sequence of EGFR (P00533 25-1210, species assumed): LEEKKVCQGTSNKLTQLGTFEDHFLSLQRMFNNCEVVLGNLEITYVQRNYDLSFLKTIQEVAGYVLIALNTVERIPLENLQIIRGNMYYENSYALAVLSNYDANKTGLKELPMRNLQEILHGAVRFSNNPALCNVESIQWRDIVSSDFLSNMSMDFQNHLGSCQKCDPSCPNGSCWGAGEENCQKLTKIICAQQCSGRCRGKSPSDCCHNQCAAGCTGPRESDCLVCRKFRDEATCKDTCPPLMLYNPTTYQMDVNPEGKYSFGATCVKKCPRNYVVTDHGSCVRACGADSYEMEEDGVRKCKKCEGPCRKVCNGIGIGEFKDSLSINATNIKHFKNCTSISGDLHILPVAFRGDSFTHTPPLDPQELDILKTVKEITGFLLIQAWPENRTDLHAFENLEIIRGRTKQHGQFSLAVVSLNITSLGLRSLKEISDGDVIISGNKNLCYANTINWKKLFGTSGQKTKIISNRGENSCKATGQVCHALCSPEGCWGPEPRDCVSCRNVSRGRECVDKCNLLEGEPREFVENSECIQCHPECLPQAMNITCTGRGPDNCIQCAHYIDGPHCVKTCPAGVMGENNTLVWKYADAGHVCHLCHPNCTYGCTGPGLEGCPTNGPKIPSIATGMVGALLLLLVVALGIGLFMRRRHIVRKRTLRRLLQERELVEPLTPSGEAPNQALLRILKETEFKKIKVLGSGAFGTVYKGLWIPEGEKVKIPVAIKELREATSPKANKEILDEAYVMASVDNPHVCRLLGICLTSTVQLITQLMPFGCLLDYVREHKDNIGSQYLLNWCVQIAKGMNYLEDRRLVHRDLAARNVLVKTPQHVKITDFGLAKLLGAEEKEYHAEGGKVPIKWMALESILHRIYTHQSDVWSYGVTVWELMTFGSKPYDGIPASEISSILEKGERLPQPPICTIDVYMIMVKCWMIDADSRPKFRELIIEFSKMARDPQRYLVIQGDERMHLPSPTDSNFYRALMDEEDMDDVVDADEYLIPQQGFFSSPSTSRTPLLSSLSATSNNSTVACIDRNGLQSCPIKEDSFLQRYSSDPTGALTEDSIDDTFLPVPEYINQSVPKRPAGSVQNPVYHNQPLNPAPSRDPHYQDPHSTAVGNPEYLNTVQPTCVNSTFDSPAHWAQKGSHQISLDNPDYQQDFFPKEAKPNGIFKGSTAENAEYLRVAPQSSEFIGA
Sequence of Src (P12931 whole entry, species assumed): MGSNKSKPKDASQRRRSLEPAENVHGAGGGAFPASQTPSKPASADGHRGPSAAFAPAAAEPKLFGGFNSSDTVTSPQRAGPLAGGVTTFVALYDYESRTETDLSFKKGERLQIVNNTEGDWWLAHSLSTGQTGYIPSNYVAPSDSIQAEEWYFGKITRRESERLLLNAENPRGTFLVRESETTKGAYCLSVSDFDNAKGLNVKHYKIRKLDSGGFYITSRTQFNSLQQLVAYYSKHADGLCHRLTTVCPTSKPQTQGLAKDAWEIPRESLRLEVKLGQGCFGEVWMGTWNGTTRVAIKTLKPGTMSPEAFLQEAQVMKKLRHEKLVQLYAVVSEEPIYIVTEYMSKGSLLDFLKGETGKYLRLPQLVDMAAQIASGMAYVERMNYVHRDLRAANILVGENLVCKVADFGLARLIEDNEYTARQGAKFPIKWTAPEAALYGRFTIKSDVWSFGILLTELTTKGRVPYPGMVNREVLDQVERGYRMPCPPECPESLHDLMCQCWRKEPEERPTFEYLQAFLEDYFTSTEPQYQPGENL
Sequence of TIE-2 (Q02763 23-1124, species assumed): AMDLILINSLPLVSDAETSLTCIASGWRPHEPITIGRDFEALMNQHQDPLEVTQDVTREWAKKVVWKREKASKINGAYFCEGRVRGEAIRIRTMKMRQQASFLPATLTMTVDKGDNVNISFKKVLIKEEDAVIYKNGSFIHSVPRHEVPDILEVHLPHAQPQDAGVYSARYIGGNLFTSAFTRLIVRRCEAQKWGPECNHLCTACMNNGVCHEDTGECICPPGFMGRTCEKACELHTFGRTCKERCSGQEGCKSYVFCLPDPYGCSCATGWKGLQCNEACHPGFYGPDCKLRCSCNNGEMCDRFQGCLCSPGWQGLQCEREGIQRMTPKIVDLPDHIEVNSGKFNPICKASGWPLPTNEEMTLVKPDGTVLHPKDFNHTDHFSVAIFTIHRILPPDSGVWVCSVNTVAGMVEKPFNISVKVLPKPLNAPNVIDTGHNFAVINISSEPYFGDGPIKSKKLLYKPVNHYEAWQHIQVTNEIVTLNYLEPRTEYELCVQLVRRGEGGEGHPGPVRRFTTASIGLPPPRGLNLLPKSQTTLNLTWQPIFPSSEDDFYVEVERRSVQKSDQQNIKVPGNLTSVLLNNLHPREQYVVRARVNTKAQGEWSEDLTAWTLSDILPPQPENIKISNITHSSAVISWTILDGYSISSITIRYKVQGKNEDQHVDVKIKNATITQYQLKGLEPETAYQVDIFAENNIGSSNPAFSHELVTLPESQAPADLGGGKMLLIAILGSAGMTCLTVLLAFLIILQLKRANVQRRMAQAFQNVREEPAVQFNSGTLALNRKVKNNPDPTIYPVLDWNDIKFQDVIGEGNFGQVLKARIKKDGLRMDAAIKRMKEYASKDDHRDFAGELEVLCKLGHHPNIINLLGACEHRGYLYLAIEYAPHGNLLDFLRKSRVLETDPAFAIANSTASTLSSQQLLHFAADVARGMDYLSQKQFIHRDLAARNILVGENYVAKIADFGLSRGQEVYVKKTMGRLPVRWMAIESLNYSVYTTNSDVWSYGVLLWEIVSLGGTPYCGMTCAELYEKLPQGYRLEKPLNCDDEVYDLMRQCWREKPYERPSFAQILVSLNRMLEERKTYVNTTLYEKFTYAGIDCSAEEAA
Sequence of FGFR-2 (P21802 22-821, species assumed): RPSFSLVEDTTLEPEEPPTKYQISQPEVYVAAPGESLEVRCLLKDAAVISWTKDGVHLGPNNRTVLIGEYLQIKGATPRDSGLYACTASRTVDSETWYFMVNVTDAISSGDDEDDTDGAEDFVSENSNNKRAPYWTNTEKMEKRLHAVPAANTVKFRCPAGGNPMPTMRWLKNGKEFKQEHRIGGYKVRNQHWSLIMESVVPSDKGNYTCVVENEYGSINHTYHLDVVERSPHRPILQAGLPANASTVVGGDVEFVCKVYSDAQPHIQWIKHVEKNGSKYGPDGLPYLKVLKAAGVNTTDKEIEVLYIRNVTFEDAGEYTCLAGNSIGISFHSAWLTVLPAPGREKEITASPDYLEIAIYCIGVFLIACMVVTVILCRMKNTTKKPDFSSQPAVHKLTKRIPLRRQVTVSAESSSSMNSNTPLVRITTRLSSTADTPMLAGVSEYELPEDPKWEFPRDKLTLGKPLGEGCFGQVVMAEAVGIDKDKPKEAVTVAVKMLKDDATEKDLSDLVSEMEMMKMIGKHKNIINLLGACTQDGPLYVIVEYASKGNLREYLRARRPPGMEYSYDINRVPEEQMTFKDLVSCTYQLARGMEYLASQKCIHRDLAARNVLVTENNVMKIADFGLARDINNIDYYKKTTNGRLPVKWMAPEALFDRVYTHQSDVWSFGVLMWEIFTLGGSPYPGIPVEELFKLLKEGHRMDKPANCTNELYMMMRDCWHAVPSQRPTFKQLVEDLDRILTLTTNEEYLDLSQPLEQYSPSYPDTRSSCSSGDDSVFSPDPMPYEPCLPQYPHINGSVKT
Sequence of VEGFR-2 (P35968 20-1356, species assumed): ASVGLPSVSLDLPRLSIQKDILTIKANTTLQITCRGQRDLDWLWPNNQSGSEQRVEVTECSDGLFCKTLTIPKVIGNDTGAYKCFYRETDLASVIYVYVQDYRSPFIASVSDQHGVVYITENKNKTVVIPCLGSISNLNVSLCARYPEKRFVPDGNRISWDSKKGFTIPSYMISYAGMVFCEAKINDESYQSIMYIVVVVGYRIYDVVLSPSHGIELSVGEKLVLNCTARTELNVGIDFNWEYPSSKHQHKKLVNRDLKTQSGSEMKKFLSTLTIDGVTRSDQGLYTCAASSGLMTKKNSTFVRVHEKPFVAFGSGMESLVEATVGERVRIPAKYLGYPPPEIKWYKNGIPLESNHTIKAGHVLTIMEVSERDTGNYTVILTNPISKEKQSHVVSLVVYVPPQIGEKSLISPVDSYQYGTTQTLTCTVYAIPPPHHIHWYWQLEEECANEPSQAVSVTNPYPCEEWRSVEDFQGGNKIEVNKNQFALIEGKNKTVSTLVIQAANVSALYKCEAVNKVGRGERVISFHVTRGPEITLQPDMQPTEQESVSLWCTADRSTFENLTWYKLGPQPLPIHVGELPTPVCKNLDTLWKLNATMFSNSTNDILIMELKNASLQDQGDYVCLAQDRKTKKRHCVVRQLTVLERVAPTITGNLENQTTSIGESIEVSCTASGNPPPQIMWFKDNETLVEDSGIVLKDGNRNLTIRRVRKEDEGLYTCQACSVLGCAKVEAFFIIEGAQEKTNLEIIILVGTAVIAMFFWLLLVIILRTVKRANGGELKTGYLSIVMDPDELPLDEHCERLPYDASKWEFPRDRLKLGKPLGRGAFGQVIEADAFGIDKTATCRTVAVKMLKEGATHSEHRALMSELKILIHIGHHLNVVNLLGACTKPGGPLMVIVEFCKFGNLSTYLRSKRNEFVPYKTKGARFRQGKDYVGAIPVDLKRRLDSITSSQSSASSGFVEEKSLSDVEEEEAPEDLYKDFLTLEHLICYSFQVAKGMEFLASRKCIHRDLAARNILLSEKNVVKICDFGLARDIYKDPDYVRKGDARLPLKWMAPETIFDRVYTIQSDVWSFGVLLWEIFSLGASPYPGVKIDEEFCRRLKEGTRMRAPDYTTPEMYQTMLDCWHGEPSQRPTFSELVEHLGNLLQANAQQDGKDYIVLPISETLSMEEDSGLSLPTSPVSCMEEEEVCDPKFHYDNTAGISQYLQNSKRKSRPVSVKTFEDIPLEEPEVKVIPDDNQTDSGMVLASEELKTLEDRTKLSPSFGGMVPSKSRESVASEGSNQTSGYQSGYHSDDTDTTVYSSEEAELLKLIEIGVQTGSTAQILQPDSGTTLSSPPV

IC50 [1]: > 5070 nM
IC50 [2]: > 5070 nM
IC50 [3]: > 10000 nM
Kd [4]: 12000 nM
Kd [8]: 600 nM
IC50 [12]: > 10000 nM
IC50 [14]: 273 nM
IC50 [19]: 4980 nM
Kd [20]: 88 nM
Kd [21]: 760 nM
Compound: CC1(COc2ccc3c(c2)ncn3-c2ccc3cccc(N4CCC(N)CC4)c3n2)COC1 [Crenolanib Besylate]
cytotoxic response compared with sorafenib [5]: greater cytotoxic response
IC50 [6]: 20.4 nM
Percent Apoptosis ([7]; compound concentration 20 nM): 32.79%
Percent Apoptosis ([7]; compound concentration 50 nM): 44.99%
Percent Apoptosis ([7]; compound concentration 100 nM): 51.17%
cytotoxic response of Molm 14 cells compared to sorafenib ([7]; concentrations 20 nM to 100 nM): significantly higher as compared to sorafenib
IC50 [9]: 3.93 nM
MV-411-luciferase bone marrow infiltration compared to vehicle [10]: siginificantly suppressed
cytotoxic effect [11]: induced a cytotoxic effect
anti-leukemic effect of combination with cytarabine [13]: Synergistic in vitro anti-leukemic effects
cytotoxicity [15]: Cytotoxicity was observed in a dose dependent fashion
IC50 [16]: 6.38 nM
phosphorylation inhibition of wild type FLT3 receptor [17]: increased phosphorylation inhibition in a dose dependent fashion
cytarabine accumulation [18]: does not decrease cytarabine accumulation
inhibition of other known RTKs or serine/threonine kinases [22]: does not inhibit

Compound: CNC(=O)c1cc(Oc2ccc(NC(=O)Nc3ccc(Cl)c(C(F)(F)F)c3)cc2)ccn1 [Sorafenib, reference compound]
Percent Apoptosis ([7]; compound concentration 20 nM): 13.07%
Percent Apoptosis ([7]; compound concentration 50 nM): 30.21%
Percent Apoptosis ([7]; compound concentration 100 nM): 44.09%
cytotoxic effect [11]: ineffective
